One data set deals with T1, DPPIV (Homo sapiens, UniProt P27487).
T1 construct: purchased R&D Systems 9168-SE-010
In words: Inhibitory activity against human recombinant DPPIV (IC50). The note with it: selected substances. It counts as biochemical. As for the experimental part:
(§1) Data were analysed by nonlinear regression with GraphPrism (version 8.3.1). The measurement results are given as values of the mean inhibitory concentration IC50 and its linearized form via the negative decimal logarithm of pIC50.

The next data set deals with T2, PREP (Homo sapiens, UniProt P48147).
T2 construct: purchased R&D Systems 4308-SE-010
T2 sequence (P48147 1-710): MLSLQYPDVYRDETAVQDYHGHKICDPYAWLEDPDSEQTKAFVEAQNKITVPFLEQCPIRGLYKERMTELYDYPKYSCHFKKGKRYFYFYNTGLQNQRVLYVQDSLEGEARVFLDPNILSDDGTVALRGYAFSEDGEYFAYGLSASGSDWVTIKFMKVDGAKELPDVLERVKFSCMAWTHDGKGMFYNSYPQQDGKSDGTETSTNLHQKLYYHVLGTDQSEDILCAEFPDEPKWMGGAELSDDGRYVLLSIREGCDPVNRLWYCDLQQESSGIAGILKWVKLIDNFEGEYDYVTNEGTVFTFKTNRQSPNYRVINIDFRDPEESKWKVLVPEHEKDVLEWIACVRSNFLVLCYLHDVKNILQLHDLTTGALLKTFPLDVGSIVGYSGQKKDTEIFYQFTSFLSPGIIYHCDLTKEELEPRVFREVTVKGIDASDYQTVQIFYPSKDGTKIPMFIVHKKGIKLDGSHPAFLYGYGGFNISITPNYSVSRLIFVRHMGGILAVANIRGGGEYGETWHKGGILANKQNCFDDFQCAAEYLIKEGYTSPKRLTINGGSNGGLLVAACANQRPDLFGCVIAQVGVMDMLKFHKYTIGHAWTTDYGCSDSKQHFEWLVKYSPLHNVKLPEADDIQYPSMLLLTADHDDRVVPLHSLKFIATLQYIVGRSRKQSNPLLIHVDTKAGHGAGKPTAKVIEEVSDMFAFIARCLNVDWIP
Put plainly: Inhibitory activity against human recombinant PREP (IC50). It counts as biochemical. The note with it: selected substances. As for the experimental part:
as §1

Data set [1] in a line: Stability in human plasma. As to conditions: 37° C., up to 120 minutes. It counts as in vitro ADME. As for the experimental part: (§2) An aliquot of plasma was extracted with 120 μl of methanol containing caffeine as an internal standard. The solution was vortexed (5 min) and centrifuged (20500 g; 10 min), the supernatant was transferred to a vial, and 1 μl of the mixture was used for LC-MS analysis. […] Results are presented as the percentage of test substance versus control (aliquot taken at time 0).

Data set [2] is described as follows: Stability in murine plasma. It counts as in vitro ADME. As to conditions: 37° C., up to 120 minutes. As for the experimental part:
as §2

Data set [3] can be described thus: Stability in murine microsomes. It counts as in vitro ADME. The note with it: murine microsomes 0.5 mg/ml, 5 μmol·l^−1 test substance, NADPH. As for the experimental part:
The incubation of 37.5 μl of the mixture was terminated by the addition of 150 μl of acetonitrile containing caffeine as an internal standard, cooled to 0° C. The mixture was vortexed (5 min) and centrifuged (20500 g; 10 min). The supernatant was transferred to a vial, and 1 μl of the mixture was used for LC-MS analysis. […] Results are presented as the percentage of test substance versus control (aliquot taken at time 0).

For the next data set, the system named is CCRF-CEM. Put plainly: Cytotoxicity (XTT) on CCRF-CEM cells. It counts as cell-based, human. As to conditions: 72 h. As for the experimental part: (§3) The cytotoxicity of the substances was measured on four tumour cell lines: CCRF-CEM, HepG2, Hela, HL-60. All cell lines were purchased from ATCC (Manassas, VA, USA). Cells were cultured in RPMI-1640 or DMEM medium containing 10% (wt/wt) FBS and 1% (wt/wt) GlutaMax. Cells were distributed at 2,000-10,000 per well of a 384-well plate (Thermo Fisher Scientific, Waltham, USA) and incubated overnight. After 24 hours, test substance solutions (10 or 100 μmol·l^−1) were added to the wells and the cells were incubated with the test substances at 37° C. and 5% (vol./vol.) CO2 for another 72 h. XTT dye (XTT cell proliferation kit II, Roche Diagnostics GmbH, Mannheim, Germany) was added to the wells according to the manufacturer's protocol. After one hour of incubation with the dye, the absorbance at 495 nm was measured and the signal was compared with the control (100% viability=cells without test substance).
In general terms: Tetrazolium assays rely on reduction of a dye to a coloured formazan, in cell work by metabolically active cells.

The subject of another data set is HL-60. In words: Cytotoxicity (XTT) on HL-60 cells. As to conditions: 72 h. It counts as cell-based, human. As for the experimental part: as §3
A further data set relates to Hela. Put plainly: Cytotoxicity (XTT) on Hela cells. It counts as cell-based, human. The note with it: 72 h. As for the experimental part: as §3
The next data set has as its system HepG2. In words: Cytotoxicity (XTT) on HepG2 cells. It counts as cell-based, human. The note with it: 72 h. As for the experimental part: as §3
Data set [4] deals with four human tumour cell lines. Put plainly: Cytotoxicity on four human tumour cell lines (summary statement). It counts as cell-based. The note with it: two concentrations differing by 1 order of magnitude. As for the experimental part: as §3

Molecules are shown by their SMILES. Entries after “also recorded” stand apart in the source; their conditions may differ. Some results are limits rather than exact numbers.

T1 sequence (P27487 whole entry): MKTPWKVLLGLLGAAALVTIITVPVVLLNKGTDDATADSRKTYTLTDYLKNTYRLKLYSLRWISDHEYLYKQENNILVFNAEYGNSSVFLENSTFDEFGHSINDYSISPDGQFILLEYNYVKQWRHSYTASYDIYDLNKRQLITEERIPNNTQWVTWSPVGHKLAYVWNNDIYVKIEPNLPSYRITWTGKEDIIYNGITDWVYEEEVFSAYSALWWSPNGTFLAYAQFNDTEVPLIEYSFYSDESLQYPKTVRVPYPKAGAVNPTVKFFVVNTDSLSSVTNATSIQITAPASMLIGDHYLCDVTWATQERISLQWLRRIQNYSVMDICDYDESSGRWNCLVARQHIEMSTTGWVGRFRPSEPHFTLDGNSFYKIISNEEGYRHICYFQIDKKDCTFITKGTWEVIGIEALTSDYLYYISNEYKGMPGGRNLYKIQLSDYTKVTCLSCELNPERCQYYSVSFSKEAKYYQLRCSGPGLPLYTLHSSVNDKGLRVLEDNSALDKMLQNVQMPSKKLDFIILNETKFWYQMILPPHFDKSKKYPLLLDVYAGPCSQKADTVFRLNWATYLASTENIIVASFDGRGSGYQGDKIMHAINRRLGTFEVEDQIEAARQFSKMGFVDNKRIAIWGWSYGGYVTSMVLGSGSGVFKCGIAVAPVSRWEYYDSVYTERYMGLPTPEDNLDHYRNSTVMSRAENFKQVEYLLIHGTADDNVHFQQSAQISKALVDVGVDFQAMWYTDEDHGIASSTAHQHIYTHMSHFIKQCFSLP

For orientation: IC50 means the point on the concentration scale where inhibition reaches its midpoint. For `COc1ccc(CNC(=O)C(=O)[C@@H]2CCCN2C(=O)CNC(=O)c2ccnc3ccccc23)cc1OC` [Compound 3b, (S)—N-(2-(2-(2-((3,4-Dimethoxybenzyl)amino)-2-oxoacetyl)pyrrolidin-1-yl)-2-oxoethyl)quinoline-4-carboxamide], the results for the 50% inhibitory concentration (IC50) on DPPIV and at PREP were above 4 µM and 0.4 nM, respectively. Also, in [1], the “Stability in human plasma” value is “stable; also recorded: excellent stability”. The “Stability in murine plasma” value in [2] is on record as “stable; also recorded: high stability”. Moreover, the “Stability in murine microsomes” value in [3] is “stable; also recorded: high stability”. Moreover, the “Cell viability CEM 10 μM” value in the data set on CCRF-CEM (10 μM) is reported as 106 % vs. control. The “Cell viability CEM 100 μM” value in the data set with CCRF-CEM (100 μM) came out at 88 % vs. control. Besides, the “Cell viability HL60 10 μM” value in the data set with HL-60 (10 μM) came to 88 % vs. control. For the same molecule, the “Cell viability HL60 100 μM” value in the data set on HL-60 (100 μM) was 100 % vs. control. Also, the “Cell viability HeLa S3 10 μM” value with Hela (10 μM) is recorded as 106 % vs. control. Also, the “Cell viability HeLa S3 100 μM” value in the data set with Hela (100 μM) is 78 % vs. control. Moreover, the “Cell viability HepG2 10 μM” value with HepG2 (10 μM) stood at 97 % vs. control. In addition, the “Cell viability HepG2 100 μM” value in the data set with HepG2 (100 μM) is given as 92 % vs. control. Further, in data set [4], the “Cytotoxicity” value is “low cytotoxicity”.

These data come from patent publication US12371416B2, “Compounds for inhibition of fibroblast activation protein” (USTAV ORGANICKE CHEMIE A BIOCHEMIE AV CR, V. V. I., priority 2020, dated 2025).
